Target: recombinant human integrin αVβ6 (Homo sapiens (Human), UniProt P06756+P18564)
Test: Solid phase integrin αVβ6 binding assay
Settings: inhibition of recombinant TGFβ1 LAP binding to coated integrin, IC50 presented in four ranges, read-out: αvβ6 Inhibition IC50 (nM) - range
Procedure: (§1) Microplates were coated with recombinant human integrin αVβ6 (2 μg/mL) in PBS (100 μL/well 25° C., overnight). The coating solution was removed, washed with wash buffer (0.05% Tween 20; 0.5 mM MnCl2; in 1×TBS). The plate was blocked with 200 μL/well of Block Buffer (1% BSA; 5% sucrose; 0.5 mM MnCl2; in 1×TBS) at 37° C. for 2 h. Dilutions of testing compounds and recombinant TGFβ1 LAP (0.67 μg/mL) in binding buffer (0.05% BSA; 2.5% sucrose; 0.5 mM MnCl2; in 1×TBS) were added. The plate was incubated for 2 hours at 25° C., washed, and incubated for 1 hour with Biotin-Anti-hLAP. Bound antibody was detected by peroxidase-conjugated streptavidin. The IC50 values for testing compounds were calculated by a four-parameter logistic regression.
The compounds tested were compound samples prepared according to procedures described in the Synthetic Examples section, with the stereochemical purity as indicated in the Examples.
as §1, with “A third series of exemplary compounds was selected for testing in the solid phase integrin αVβ6 binding assay. The compounds tested were compound samples prepared according to procedures described in the Synthetic Examples section, with the stereochemical purity as indicated in the Examples. As in Example B1, microplates were” for “Microplates were”, “(0.67 g/mL)” for “(0.67 μg/mL)”

recombinant human integrin αVβ6, sequence (P06756 31-992): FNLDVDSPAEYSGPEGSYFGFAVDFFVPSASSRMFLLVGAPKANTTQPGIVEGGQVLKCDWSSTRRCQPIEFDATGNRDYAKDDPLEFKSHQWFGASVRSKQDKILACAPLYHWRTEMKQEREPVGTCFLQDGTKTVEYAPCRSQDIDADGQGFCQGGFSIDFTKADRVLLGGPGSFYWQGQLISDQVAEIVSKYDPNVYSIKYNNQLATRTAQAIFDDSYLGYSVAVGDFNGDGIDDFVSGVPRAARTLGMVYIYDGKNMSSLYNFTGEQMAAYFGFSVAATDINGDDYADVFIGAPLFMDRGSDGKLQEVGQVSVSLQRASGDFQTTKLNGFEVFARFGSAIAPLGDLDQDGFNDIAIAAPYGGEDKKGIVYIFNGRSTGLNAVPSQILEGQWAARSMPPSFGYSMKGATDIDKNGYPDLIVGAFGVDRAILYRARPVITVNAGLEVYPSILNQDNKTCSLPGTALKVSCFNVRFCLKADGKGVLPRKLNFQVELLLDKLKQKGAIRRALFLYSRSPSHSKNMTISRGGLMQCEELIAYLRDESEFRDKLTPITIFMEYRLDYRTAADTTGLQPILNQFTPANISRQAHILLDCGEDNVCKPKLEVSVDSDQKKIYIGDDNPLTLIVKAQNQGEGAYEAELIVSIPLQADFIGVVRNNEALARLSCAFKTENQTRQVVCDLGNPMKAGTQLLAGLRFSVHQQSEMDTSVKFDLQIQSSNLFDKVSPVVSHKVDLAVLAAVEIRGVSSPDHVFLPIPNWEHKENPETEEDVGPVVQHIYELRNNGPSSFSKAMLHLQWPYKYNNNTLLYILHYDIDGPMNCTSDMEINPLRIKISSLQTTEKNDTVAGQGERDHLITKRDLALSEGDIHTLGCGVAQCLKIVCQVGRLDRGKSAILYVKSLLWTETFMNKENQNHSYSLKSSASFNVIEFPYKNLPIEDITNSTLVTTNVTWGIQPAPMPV
recombinant human integrin αVβ6, sequence (P18564 22-707): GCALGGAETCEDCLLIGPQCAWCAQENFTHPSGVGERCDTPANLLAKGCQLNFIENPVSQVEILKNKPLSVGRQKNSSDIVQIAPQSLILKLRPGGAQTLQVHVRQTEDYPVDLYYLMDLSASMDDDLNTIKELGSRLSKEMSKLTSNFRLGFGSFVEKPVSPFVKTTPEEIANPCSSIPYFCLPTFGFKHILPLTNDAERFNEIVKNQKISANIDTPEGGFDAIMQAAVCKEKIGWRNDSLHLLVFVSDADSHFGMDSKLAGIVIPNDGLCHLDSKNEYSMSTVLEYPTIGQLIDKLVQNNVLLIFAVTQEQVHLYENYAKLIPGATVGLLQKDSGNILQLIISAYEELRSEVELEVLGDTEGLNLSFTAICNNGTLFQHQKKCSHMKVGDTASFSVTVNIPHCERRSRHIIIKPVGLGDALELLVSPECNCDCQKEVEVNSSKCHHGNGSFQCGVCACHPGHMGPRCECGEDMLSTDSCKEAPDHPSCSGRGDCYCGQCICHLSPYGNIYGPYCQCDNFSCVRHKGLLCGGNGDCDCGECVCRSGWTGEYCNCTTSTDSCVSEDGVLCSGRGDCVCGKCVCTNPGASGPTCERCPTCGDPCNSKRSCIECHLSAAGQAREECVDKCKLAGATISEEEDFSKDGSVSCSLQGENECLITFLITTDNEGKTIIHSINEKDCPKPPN

Row | Compound | IC50 [nM]
1 | COCCN(CCCCc1ccc2c(n1)NCCC2)CC[C@H](Nc1ccnc(C(F)(F)F)n1)C(=O)O [Compound 24, (S)-4-((2-methoxyethyl) (4-(5,6,7,8-tetrahydro-1,8-naphthyridin-2-yl)butyl)amino)-2-((2-(trifluoromethyl)pyrimidin-4-yl)amino) butanoic Acid] | < 50
2 | CO[C@@H](C)CN(CCCCc1ccc2c(n1)NCCC2)CC[C@H](Nc1ncnc2ccccc12)C(=O)O [Compound 25, (S)-4-(((S)-2-methoxypropyl) (4-(5,6,7,8-tetrahydro-1,8-naphthyridin-2-yl)butyl)amino)-2-(quinazolin-4-ylamino) butanoic Acid] | < 50
3 | COCCN(CCCCc1ccc2c(n1)NCCC2)CC[C@H](Nc1cc(C)nc(C(F)(F)F)n1)C(=O)O [Compound 26, (S)-4-((2-methoxyethyl) (4-(5,6,7,8-tetrahydro-1,8-naphthyridin-2-yl)butyl)amino)-2-((6-methyl-2-(trifluoromethyl)pyrimidin-4-yl)amino) butanoic Acid] | < 50
4 | CS(=O)(=O)CCN(CCCCc1ccc2c(n1)NCCC2)CC[C@H](Nc1ncnc2ccccc12)C(=O)O [Compound 27, (S)-4-((2-(methylsulfonyl)ethyl) (4-(5,6,7,8-tetrahydro-1,8-naphthyridin-2-yl)butyl)amino)-2-(quinazolin-4-ylamino) butanoic Acid] | < 50
5 | O=C(O)[C@H](CCN(CCCCc1ccc2c(n1)NCCC2)CCOc1ccccc1)Nc1ncnc2ccccc12 [Compound 28, (S)-4-((2-phenoxyethyl) (4-(5,6,7,8-tetrahydro-1,8-naphthyridin-2-yl)butyl)amino)-2-(quinazolin-4-ylamino) butanoic Acid] | < 50
6 | O=C(O)[C@H](CCN(CCCCc1ccc2c(n1)NCCC2)CCC(F)F)Nc1ncnc2ccccc12 [Compound 29, (S)-4-((3,3-difluoropropyl) (4-(5,6,7,8-tetrahydro-1,8-naphthyridin-2-yl)butyl)amino)-2-(quinazolin-4-ylamino) butanoic Acid] | < 50
7 | O=C(O)[C@H](CCN(CCCF)CCCCc1ccc2c(n1)NCCC2)Nc1ncnc2ccccc12 [Compound 30, (S)-4-((3-fluoropropyl) (4-(5,6,7,8-tetrahydro-1,8-naphthyridin-2-yl)butyl)amino)-2-(quinazolin-4-ylamino) butanoic Acid] | < 50
8 | COC[C@@H](F)CN(CCCCc1ccc2c(n1)NCCC2)CC[C@H](Nc1ncnc2ccccc12)C(=O)O [Compound 31, (S)-4-(((S)-2-fluoro-3-methoxypropyl) (4-(5,6,7,8-tetrahydro-1,8-naphthyridin-2-yl)butyl)amino)-2-(quinazolin-4-ylamino) butanoic Acid] | < 50
9 | COC[C@@H](F)CN(CCCCc1ccc2c(n1)NCCC2)CC[C@H](Nc1nc(C)nc2cc(F)ccc12)C(=O)O [Compound 32, (S)-2-((7-fluoro-2-methylquinazolin-4-yl)amino)-4-(((S)-2-fluoro-3-methoxypropyl) (4-(5,6,7,8-tetrahydro-1,8-naphthyridin-2-yl)butyl)amino) butanoic Acid] | < 50
10 | Cc1nc(N[C@@H](CCN(CCCCc2ccc3c(n2)NCCC3)CC2CC(F)(F)C2)C(=O)O)c2ccc(F)cc2n1 [Compound 33, (S)-4-(((3,3-difluorocyclobutyl)methyl) (4-(5,6,7,8-tetrahydro-1,8-naphthyridin-2-yl)butyl)amino)-2-((7-fluoro-2-methylquinazolin-4-yl)amino) butanoic Acid] | < 50
11 | COCCN(CCCCc1ccc2c(n1)NCCC2)CC[C@H](Nc1nccc2ccccc12)C(=O)O [Compound 34, (S)-2-(isoquinolin-1-ylamino)-4-((2-methoxyethyl) (4-(5,6,7,8-tetrahydro-1,8-naphthyridin-2-yl)butyl)amino) butanoic Acid] | > 1000
12 | O=C(O)[C@H](CCN(CCCCc1ccc2c(n1)NCCC2)CCOC(F)F)Nc1ncnc2ccccc12 [Compound 35, (S)-4-((2-(difluoromethoxy)ethyl) (4-(5,6,7,8-tetrahydro-1,8-naphthyridin-2-yl)butyl)amino)-2-(quinazolin-4-ylamino) butanoic Acid] | < 50
13 | COCCN(CCCCc1ccc2c(n1)NCCC2)CC[C@H](Nc1ccnc2ccccc12)C(=O)O [Compound 36, (S)-4-((2-methoxyethyl) (4-(5,6,7,8-tetrahydro-1,8-naphthyridin-2-yl)butyl)amino)-2-(quinolin-4-ylamino) butanoic Acid] | > 1000
14 | COCCN(CCCCc1ccc2c(n1)NCCC2)CC[C@H](Nc1ncnc2cc(Cl)ccc12)C(=O)O [Compound 37, (S)-2-((7-chloroquinazolin-4-yl)amino)-4-((2-methoxyethyl) (4-(5,6,7,8-tetrahydro-1,8-naphthyridin-2-yl)butyl)amino) butanoic Acid] | 50 to 250
15 | COCCN(CCCCc1ccc2c(n1)NCCC2)CC[C@H](Nc1ncnc2c(Cl)cccc12)C(=O)O [Compound 38, (S)-2-((8-chloroquinazolin-4-yl)amino)-4-((2-methoxyethyl) (4-(5,6,7,8-tetrahydro-1,8-naphthyridin-2-yl)butyl)amino) butanoic Acid] | < 50
16 | O=C(O)[C@H](CCN(CCCCc1ccc2c(n1)NCCC2)CCOCC(F)(F)F)Nc1ncnc2ccccc12 [Compound 39, (S)-2-(quinazolin-4-ylamino)-4-((4-(5,6,7,8-tetrahydro-1,8-naphthyridin-2-yl)butyl) (2-(2,2,2-trifluoroethoxy)ethyl)amino) butanoic Acid] | < 50
17 | Cc1nc(N[C@@H](CCN(CCCCc2ccc3c(n2)NCCC3)CCOc2ccc(F)cc2)C(=O)O)c2ccc(F)cc2n1 [Compound 40, (S)-2-((7-fluoro-2-methylquinazolin-4-yl)amino)-4-((2-(4-fluorophenoxy)ethyl) (4-(5,6,7,8-tetrahydro-1,8-naphthyridin-2-yl)butyl)amino) butanoic Acid] | < 50
18 | COc1ccc2c(N[C@@H](CCN(CCCF)CCCCc3ccc4c(n3)NCCC4)C(=O)O)ncnc2c1 [Compound 41, (S)-4-((3-fluoropropyl) (4-(5,6,7,8-tetrahydro-1,8-naphthyridin-2-yl)butyl)amino)-2-((7-methoxyquinazolin-4-yl)amino) butanoic Acid] | < 50
19 | Cc1nc(N[C@@H](CCN(CCCCc2ccc3c(n2)NCCC3)CCOC2CC2(F)F)C(=O)O)c2ccc(F)cc2n1 (stereo partly drawn) [Compound 42, (2S)-4-((2-(2,2-difluorocyclopropoxy)ethyl) (4-(5,6,7,8-tetrahydro-1,8-naphthyridin-2-yl)butyl)amino)-2-((7-fluoro-2-methylquinazolin-4-yl)amino) butanoic Acid] | < 50
20 | COc1cccc2c(N[C@@H](CCN(CCCF)CCCCc3ccc4c(n3)NCCC4)C(=O)O)ncnc12 [Compound 43, (S)-4-((3-fluoropropyl) (4-(5,6,7,8-tetrahydro-1,8-naphthyridin-2-yl)butyl)amino)-2-((8-methoxyquinazolin-4-yl)amino) butanoic Acid] | < 50
21 | COCCN(CCCCc1ccc2c(n1)NCCC2)CC[C@H](Nc1cc(-n2cccn2)ncn1)C(=O)O [Compound 44, (S)-2-((6-(1H-pyrazol-1-yl)pyrimidin-4-yl)amino)-4-((2-methoxyethyl) (4-(5,6,7,8-tetrahydro-1,8-naphthyridin-2-yl)butyl)amino) butanoic Acid] | < 50
22 | Cc1cc(C)n(CCN(CCCCc2ccc3c(n2)NCCC3)CC[C@H](Nc2ncnc3ccccc23)C(=O)O)n1 [Compound 45, (S)-4-((2-(3,5-dimethyl-1H-pyrazol-1-yl)ethyl) (4-(5,6,7,8-tetrahydro-1,8-naphthyridin-2-yl)butyl)amino)-2-(quinazolin-4-ylamino) butanoic Acid] | < 50
23 | COC[C@@H](F)CN(CCCCc1ccc2c(n1)NCCC2)CC[C@H](Nc1nc(C)nc2ccccc12)C(=O)O [Compound 46, (S)-4-(((S)-2-fluoro-3-methoxypropyl) (4-(5,6,7,8-tetrahydro-1,8-naphthyridin-2-yl)butyl)amino)-2-((2-methylquinazolin-4-yl)amino) butanoic Acid] | < 50
24 | O=C(O)[C@H](CCN(CCCCc1ccc2c(n1)NCCC2)CCOc1cc(F)cc(F)c1)Nc1ncnc2ccccc12 [Compound 47, (S)-4-((2-(3,5-difluorophenoxy)ethyl) (4-(5,6,7,8-tetrahydro-1,8-naphthyridin-2-yl)butyl)amino)-2-(quinazolin-4-ylamino) butanoic Acid] | < 50
25 | O=C(O)[C@H](CCN(CCCCc1ccc2c(n1)NCCC2)CCOc1ccccn1)Nc1ncnc2c(Cl)cccc12 [Compound 48, (S)-2-((8-chloroquinazolin-4-yl)amino)-4-((2-(pyridin-2-yloxy)ethyl) (4-(5,6,7,8-tetrahydro-1,8-naphthyridin-2-yl)butyl)amino) butanoic Acid] | < 50
